From the Kinase Knowledgebase extract (Sharma et al. 2016)
pIC50: −log10 of the molar value. Positions of bridges follow the written chain, without caps; N, C: chain ends. Non-standard residues stand in square brackets, D forms with d. Residues, ends and D or L forms follow the SMILES beside them. *: point of attachment. pY = N[C@@H](Cc1ccc(OP(=O)(O)O)cc1)C(=O)O; O(2-Aminobenzoyl) = Nc1ccccc1C(=O)O*; X9 = O=S(=O)(O*)c1cccc2cccnc12; X13 = Nc1cc2ccccc2cc1C(=O)O*; X2 = O=C(O*)c1cc2ccccc2[nH]1; X3 = O=C(O*)c1cnc2ccccc2c1; X7 = O=C(O*)c1cc2ccccc2cn1; X8 = Nc1cc(N)cc(C(=O)O*)c1; X12 = Nc1ccccc1C(=O)OCCN*; X5 = O=C(O*)C1Cc2ccccc2N1; Ac6c = NC1(C(=O)O)CCCCC1; X11 = Nc1ccc(C(=O)O*)cc1; Ac5c = NC1(C(=O)O)CCCC1; X1 = Nc1ccccc1C(=O)OCN*; X6 = Nc1cccc(C(=O)O*)c1; X10 = Nc1ncccc1C(=O)O*; X4 = O=C(O*)c1ccccc1O; Acm = CC(=O)NC*

molecular target: EGFR (UniProt P00533)
Sequence (P00533 whole entry, looked up): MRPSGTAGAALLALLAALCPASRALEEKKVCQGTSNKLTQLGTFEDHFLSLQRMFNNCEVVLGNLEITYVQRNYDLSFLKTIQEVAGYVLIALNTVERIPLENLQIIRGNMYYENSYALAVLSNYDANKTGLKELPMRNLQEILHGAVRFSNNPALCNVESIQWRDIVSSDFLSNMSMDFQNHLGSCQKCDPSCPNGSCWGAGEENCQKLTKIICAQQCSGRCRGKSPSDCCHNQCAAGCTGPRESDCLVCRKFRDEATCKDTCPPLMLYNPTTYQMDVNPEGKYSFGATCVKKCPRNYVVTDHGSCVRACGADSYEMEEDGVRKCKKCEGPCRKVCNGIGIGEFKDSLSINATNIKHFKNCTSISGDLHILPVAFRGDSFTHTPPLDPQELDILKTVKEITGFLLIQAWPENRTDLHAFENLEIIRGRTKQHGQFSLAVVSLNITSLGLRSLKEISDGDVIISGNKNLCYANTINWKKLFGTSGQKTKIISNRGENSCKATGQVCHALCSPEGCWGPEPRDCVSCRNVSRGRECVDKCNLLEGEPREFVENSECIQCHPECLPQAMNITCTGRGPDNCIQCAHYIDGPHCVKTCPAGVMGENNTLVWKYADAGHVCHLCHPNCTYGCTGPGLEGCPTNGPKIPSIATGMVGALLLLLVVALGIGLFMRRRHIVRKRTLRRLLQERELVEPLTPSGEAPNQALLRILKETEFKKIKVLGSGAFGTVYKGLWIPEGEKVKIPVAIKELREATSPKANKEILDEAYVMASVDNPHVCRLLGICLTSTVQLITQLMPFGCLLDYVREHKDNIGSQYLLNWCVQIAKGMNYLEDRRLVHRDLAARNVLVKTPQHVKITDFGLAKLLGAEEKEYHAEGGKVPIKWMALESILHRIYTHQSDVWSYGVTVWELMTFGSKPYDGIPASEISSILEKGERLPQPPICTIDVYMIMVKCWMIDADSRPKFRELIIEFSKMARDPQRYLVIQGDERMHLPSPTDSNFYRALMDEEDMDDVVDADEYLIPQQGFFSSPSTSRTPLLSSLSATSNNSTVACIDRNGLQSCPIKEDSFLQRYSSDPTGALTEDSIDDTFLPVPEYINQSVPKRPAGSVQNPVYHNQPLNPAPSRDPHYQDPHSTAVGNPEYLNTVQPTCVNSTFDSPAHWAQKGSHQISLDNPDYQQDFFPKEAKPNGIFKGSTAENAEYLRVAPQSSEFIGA

Compared with `CC[C@H](C)[C@H](NC(=O)[C@H](CC(N)=O)NC(=O)[C@@H](N)CCC(N)=O)C(=O)N[C@@H](Cc1ccc(OP(=O)(O)O)cc1)C(=O)N[C@@H](CCC(=O)O)C(=O)OC(=O)c1cccnc1N` (H-QNI[pY]E-X10), `CC[C@H](C)[C@H](NC(=O)[C@H](CC(N)=O)NC(=O)[C@@H](N)CCC(N)=O)C(=O)N[C@@H](Cc1ccc(OP(=O)(O)O)cc1)C(=O)N[C@@H](CCC(=O)O)C(=O)OC(=O)c1ccccc1N` (H-QNI[pY]E-{O(2-Aminobenzoyl)}) is 1.34 log units higher in pIC50: 6.32 for the first, 7.66 for the second. The second is the more potent here.

Compared with `CC(=O)NCSC[C@H](NC(=O)[C@H](CC(N)=O)NC(=O)[C@@H](N)CCC(N)=O)C(=O)N[C@@H](Cc1ccc(OP(=O)(O)O)cc1)C(=O)N[C@@H](CSCNC(C)=O)C(=O)OC(=O)c1ccccc1N` (H-QNC(Acm)[pY]C(Acm)-{O(2-Aminobenzoyl)}), `CC[C@H](C)[C@H](NC(=O)[C@H](CC(N)=O)NC(=O)[C@@H](N)CSCNC(C)=O)C(=O)N[C@@H](Cc1ccc(OP(=O)(O)O)cc1)C(=O)N[C@@H](CSCNC(C)=O)C(=O)OC(=O)c1ccccc1N` is 1.52 log units higher in pIC50: 5.50 for the first, 7.02 for the second. The second is the more potent here.

Compared with `CC[C@H](C)[C@H](NC(=O)[C@@H](N)CC(N)=O)C(=O)N[C@@H](Cc1ccc(OP(=O)(O)O)cc1)C(=O)N[C@@H](CCC(=O)O)C(=O)OC(=O)c1ccccc1N` (H-NI[pY]E-{O(2-Aminobenzoyl)}), `CC[C@H](C)[C@H](NC(=O)[C@H](CC(N)=O)NC(=O)[C@@H](N)CCC(N)=O)C(=O)N[C@@H](Cc1ccc(OP(=O)(O)O)cc1)C(=O)N[C@@H](C)C(=O)OC(=O)c1ccccc1N` (H-QNI[pY]A-{O(2-Aminobenzoyl)}) is 0.30 log units higher in pIC50: 7.66 for the first, 7.96 for the second.

First: CC[C@H](C)[C@H](NC(=O)[C@H](CC(N)=O)NC(=O)[C@@H](N)CCC(N)=O)C(=O)N[C@@H](Cc1ccc(OP(=O)(O)O)cc1)C(=O)NCOC(=O)c1ccccc1N (H-QNI[pY]-X1)
Second: CC[C@H](C)[C@H](NC(=O)[C@H](CC(N)=O)NC(=O)[C@@H](N)CCC(N)=O)C(=O)N[C@@H](Cc1ccc(OP(=O)(O)O)cc1)C(=O)N[C@H](C(=O)OC(=O)c1ccccc1N)C(C)C (H-QNI[pY]V-{O(2-Aminobenzoyl)})
The pIC50 of the first is 1.25 log units higher: 8.22 for the first, 6.97 for the second.

First: CC[C@H](C)[C@H](NC(=O)[C@H](CC(N)=O)NC(=O)[C@@H](N)CCC(N)=O)C(=O)N[C@@H](Cc1ccc(OP(=O)(O)O)cc1)C(=O)N[C@@H](CCC(=O)O)C(=O)OC(=O)c1ccc(N)cc1 (H-QNI[pY]E-X11)
Second: CC[C@H](C)[C@H](NC(=O)[C@H](CC(N)=O)NC(=O)[C@@H](N)CCC(N)=O)C(=O)N[C@@H](Cc1ccc(OP(=O)(O)O)cc1)C(=O)N[C@@H](CCC(=O)O)C(=O)OC(=O)c1cccc(N)c1 (H-QNI[pY]E-X6)
The pIC50 of the first is 0.60 log units lower: 6.64 for the first, 7.24 for the second.

`CC[C@H](C)[C@H](NC(=O)[C@H](CC(N)=O)NC(=O)[C@@H](N)CCC(N)=O)C(=O)N[C@@H](Cc1ccc(OP(=O)(O)O)cc1)C(=O)N[C@@H](CCC(=O)O)C(=O)OC(=O)c1ccccc1O` (H-QNI[pY]E-X4) and `CC[C@H](C)[C@H](NC(=O)[C@H](CC(N)=O)NC(=O)[C@@H](N)CCC(N)=O)C(=O)N[C@@H](Cc1ccc(OP(=O)(O)O)cc1)C(=O)N[C@@H](CCC(=O)O)C(=O)OC(=O)c1cc2ccccc2cc1N` (H-QNI[pY]E-X13) are within 0.2 log units of each other in pIC50: 6.11 for the first, 6.22 for the second.

Compared with `CC[C@H](C)[C@@H]1NC(=O)[C@H](CC(N)=O)NC(=O)[C@H](CCC(N)=O)NC(=O)[C@@H](N)CSSC[C@@H](C(=O)OC(=O)c2ccccc2N)NC(=O)[C@H](Cc2ccc(OP(=O)(O)O)cc2)NC1=O` (H-CQNI[pY]C-{O(2-Aminobenzoyl)}; disulfide 1-6), `CC[C@H](C)[C@@H]1NC(=O)[C@H](CC(N)=O)NC(=O)[C@@H](N)CSSC[C@@H](C(=O)OC(=O)c2ccccc2N)NC(=O)[C@H](Cc2ccc(OP(=O)(O)O)cc2)NC1=O` (H-CNI[pY]C-{O(2-Aminobenzoyl)}; disulfide 1-5) is 1.15 log units lower in pIC50: 7.82 for the first, 6.67 for the second.

Going from `CC[C@H](C)[C@H](NC(=O)[C@H](CC(N)=O)NC(=O)[C@@H](N)CCC(N)=O)C(=O)N[C@@H](Cc1ccc(OP(=O)(O)O)cc1)C(=O)N[C@@H](CCC(=O)O)C(=O)OC(=O)c1cc2ccccc2[nH]1` (H-QNI[pY]E-X2) to `CC[C@H](C)[C@H](NC(=O)[C@H](CC(N)=O)NC(=O)[C@@H](N)CCC(N)=O)C(=O)N[C@@H](Cc1ccc(OP(=O)(O)O)cc1)C(=O)N[C@@H](CCC(=O)O)C(=O)OC(=O)c1cnc2ccccc2c1` (H-QNI[pY]E-X3), the pIC50 falls from 6.70 to 6.09 (0.61 log units). The first is the more potent here.

Going from `CC[C@H](C)[C@H](NC(=O)[C@H](CC(N)=O)NC(=O)[C@@H](N)CCC(N)=O)C(=O)N[C@@H](Cc1ccc(OP(=O)(O)O)cc1)C(=O)N[C@@H](CC(C)C)C(=O)OC(=O)c1ccccc1N` (H-QNI[pY]L-{O(2-Aminobenzoyl)}) to `CC[C@H](C)[C@H](NC(=O)[C@H](CC(N)=O)NC(=O)[C@@H](N)CCC(N)=O)C(=O)N[C@@H](Cc1ccc(OP(=O)(O)O)cc1)C(=O)N[C@H](C(=O)OC(=O)c1ccccc1N)[C@@H](C)CC` (H-QNI[pY]I-{O(2-Aminobenzoyl)}), the pIC50 rises from 6.86 to 8.22 (1.36 log units). The second is the more potent here.

First: CC[C@H](C)[C@H](NC(=O)[C@H](CC(N)=O)NC(=O)[C@@H](N)CCC(N)=O)C(=O)N[C@@H](Cc1ccc(OP(=O)(O)O)cc1)C(=O)N[C@@H](CCC(=O)O)C(=O)OC(=O)C1Cc2ccccc2N1 (some centres undefined) (H-QNI[pY]E-X5)
Second: CC[C@H](C)[C@H](NC(=O)[C@H](CC(N)=O)NC(=O)[C@@H](N)CCC(N)=O)C(=O)N[C@@H](Cc1ccc(OP(=O)(O)O)cc1)C(=O)N[C@@H](CCC(=O)O)C(=O)OC(=O)c1cc2ccccc2cn1 (H-QNI[pY]E-X7)
The pIC50 of the first is 0.87 log units higher: 7.13 for the first, 6.26 for the second. The first is the more potent here.

Compared with `NC(=O)C[C@H](N)C(=O)NC1(C(=O)N[C@@H](Cc2ccc(OP(=O)(O)O)cc2)C(=O)N[C@@H](CCC(=O)O)C(=O)OC(=O)c2ccccc2N)CCCCC1` (H-N[Ac6c][pY]E-{O(2-Aminobenzoyl)}), `NC(=O)C[C@H](N)C(=O)NC1(C(=O)N[C@@H](Cc2ccc(OP(=O)(O)O)cc2)C(=O)N[C@@H](CCC(=O)O)C(=O)OC(=O)c2ccccc2N)CCCC1` (H-N[Ac5c][pY]E-{O(2-Aminobenzoyl)}) is 0.66 log units lower in pIC50: 7.85 for the first, 7.19 for the second.

`CC[C@H](C)[C@H](NC(=O)[C@H](CC(N)=O)NC(=O)[C@@H](N)CCC(N)=O)C(=O)N[C@@H](Cc1ccc(OP(=O)(O)O)cc1)C(=O)N[C@@H](CCC(=O)O)C(=O)OC(=O)c1cc(N)cc(N)c1` (H-QNI[pY]E-X8) and `CC[C@H](C)[C@H](NC(=O)[C@H](CC(N)=O)NC(=O)[C@@H](N)CCC(N)=O)C(=O)N[C@@H](Cc1ccc(OP(=O)(O)O)cc1)C(=O)N[C@@H](CCC(=O)O)C(=O)NCCOC(=O)c1ccccc1N` (H-QNI[pY]E-X12) are within 0.2 log units of each other in pIC50: 6.74 for the first, 6.89 for the second.

First: CC[C@H](C)[C@H](NC(=O)[C@@H](N)CC(N)=O)C(=O)N[C@@H](Cc1ccc(OP(=O)(O)O)cc1)C(=O)N[C@@H](Cc1ccccc1)C(=O)OC(=O)c1ccccc1N (H-NI[pY]F-{O(2-Aminobenzoyl)})
Second: CC[C@H](C)[C@H](N)C(=O)N[C@H](C(=O)N[C@@H](Cc1ccc(OP(=O)(O)O)cc1)C(=O)N[C@@H](CC(=O)O)C(=O)OC(=O)c1ccccc1N)[C@@H](C)CC (H-II[pY]D-{O(2-Aminobenzoyl)})
The pIC50 of the first is 0.63 log units higher: 7.27 for the first, 6.64 for the second.

`CC[C@H](C)[C@H](NC(=O)[C@H](CC(N)=O)NC(=O)[C@@H](N)CCC(N)=O)C(=O)N[C@@H](Cc1ccc(OP(=O)(O)O)cc1)C(=O)N[C@H](C(=O)OS(=O)(=O)c1cccc2cccnc12)[C@@H](C)CC` (H-QNI[pY]I-X9) and `CC[C@H](C)[C@H](NC(=O)[C@H](CC(N)=O)NC(=O)[C@H](N)CSCNC(C)=O)C(=O)N[C@@H](Cc1ccc(OP(=O)(O)O)cc1)C(=O)N[C@@H](CSCNC(C)=O)C(=O)OC(=O)c1ccccc1N` are within 0.2 log units of each other in pIC50: 6.64 for the first, 6.57 for the second.

With `NC(=O)CC[C@H](N)C(=O)N[C@@H](CC(N)=O)C(=O)N[C@H]1CSSC[C@@H](C(=O)OC(=O)c2ccccc2N)NC(=O)[C@H](Cc2ccc(OP(=O)(O)O)cc2)NC1=O` (H-QNC[pY]C-{O(2-Aminobenzoyl)}; disulfide 3-5) the pIC50 was 6.24.
